Laboratory results published in patent publication US20250346592A1 (Celgene Corporation, priority 2022, published 2025).

Legend:
hPAD4 enzyme [1] = target: T1, hPAD4 enzyme (Homo sapiens (Human), UniProt Q9UM07); experiment: RFMS1 assay (RapidFire mass spectrometry, BAEE substrate); assay type: biochemical; conditions: 5 nM hPAD4, 250 μM BAEE, 30 min preincubation at 37° C., 90 min reaction; read-out: RFMS 1 IC50
Method: Compounds were solubilized in 100% DMSO to achieve a 10 mM compound concentration. Compound stock solutions were stored at RT. A series of dilutions were prepared in DMSO and mixed 8 times with 20 μL mixing volume. Final top concentration of compound in the assay is 50 μM. Final assay conditions were as follows: • Reaction volume: 26 μl • Assay buffer: 25 mM hepes, pH 7.5, 5 mM NaCl, 1 mM DTT, 0.2 mg/ml BSA, 0.01% CHAPS, 50 µM Calcium, and 5 μM TPEN • Final concentrations: 5 nM hPAD4 enzyme, 250 µM BAEE, and 0.5% DMSO • Total incubation time: 30 mins compound and enzyme preincubation at 37° C., 90 min enzyme/substrate reaction, 30 min reaction with phenyl glyoxal at 37° C. • Stop solution: 40 μl 5% TCA in ACN • 0.13 μL of compound solution was added to 13 μL of 10 nM PAD4 in assay buffer. After […] min 13 μl of 500 µM of BAEE was added in 25 mM hepes, pH 7.5, 5 mM NaCl, 1 mM DTT, 0.2 mg/ml BSA, 0.01% CHAPS, 50 μM Calcium, 5 μM TPEN was added and the reaction incubated for 90 min at 37° C. The enzymatic reaction was quenched by addition of 15 μl of 6.1N TCA, 100% Final Concentration is 20%, 35 μl of 8.5 mM phenyl glyoxal (final concentration 4 mM) is then added and the reaction is incubated for 30 min at 37° C.
After 30 minutes the plates are spun down to remove all precipitate. The enzyme reaction was quenched with an equal volume of methanol containing internal standard (modified citrulline). Samples were loaded onto the Rapid Fire RF300 system (Agilent) wherein they were first sipped for 1000 ms and then directly loaded to a C18 separations cartridge using a mixture of acetonitrile containing 0.01% formic acid for 3000 ms desalting. The flow rate of the mobile phase was 1.5 ml/min. Once the samples were eluted from the cartridge, a mobile phase of acetonitrile containing 0.01% formic acid was used to move the samples into the mass spectrometer for 4000 ms at a flow rate of 1.25 ml/min/Sciex API5500 triple quadrupole mass spectrometer (Applied Biosystems) equipped with ESI was used to analyze the peptidyl citrulline and internal standard ions.
MRM transition of product and internal standard were monitored at m/z 424.5 to 350.4 and m/z 293 to 247 respectively. The dwell time for each transition was set at 200 ms, and the ESI voltage was used at 5500 with a source temperature of 400° C. Extracted ion peaks for each transition were integrated using the Rapid Fire Integrator software. Peak area of analyte was normalized with internal standard.).
Compounds having an activity designated as “A” provided an IC50≤10 nM; compounds having an activity designated as “B” provided an IC50 11-100 nM; compounds having an activity designated as “C” provided an IC50 101-500 nM; compounds having an activity designated as “D” provided an IC50 501-1000 nM; compounds having an activity designated as “E” provided an IC50>1000 nM.

hPAD4 enzyme [2] = target: T1, hPAD4 enzyme; experiment: RFMS2 assay (RapidFire mass spectrometry, TSTGGRQGSHH peptide substrate); assay type: biochemical; conditions: 35 nM recombinant human PAD4, 500 μM TSTGGRQGSHH peptide, 30 minutes at room temperature; read-out: RFMS 2 IC50
In short: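 Recombinant human PAD4 (35 nM) with 500 μM TSTGGRQGSHH peptide in HEPES pH 7.4, 200 mM NaCl, 2 mM CaCl2, 5 mM DTT, 1.2% DMSO, 30 min at room temperature; 3-fold compound series, top 20 μM. Quenched with formic acid; substrate and citrullinated product quantified by RapidFire MRM mass spectrometry for IC50.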

T1 sequence (Q9UM07 whole entry): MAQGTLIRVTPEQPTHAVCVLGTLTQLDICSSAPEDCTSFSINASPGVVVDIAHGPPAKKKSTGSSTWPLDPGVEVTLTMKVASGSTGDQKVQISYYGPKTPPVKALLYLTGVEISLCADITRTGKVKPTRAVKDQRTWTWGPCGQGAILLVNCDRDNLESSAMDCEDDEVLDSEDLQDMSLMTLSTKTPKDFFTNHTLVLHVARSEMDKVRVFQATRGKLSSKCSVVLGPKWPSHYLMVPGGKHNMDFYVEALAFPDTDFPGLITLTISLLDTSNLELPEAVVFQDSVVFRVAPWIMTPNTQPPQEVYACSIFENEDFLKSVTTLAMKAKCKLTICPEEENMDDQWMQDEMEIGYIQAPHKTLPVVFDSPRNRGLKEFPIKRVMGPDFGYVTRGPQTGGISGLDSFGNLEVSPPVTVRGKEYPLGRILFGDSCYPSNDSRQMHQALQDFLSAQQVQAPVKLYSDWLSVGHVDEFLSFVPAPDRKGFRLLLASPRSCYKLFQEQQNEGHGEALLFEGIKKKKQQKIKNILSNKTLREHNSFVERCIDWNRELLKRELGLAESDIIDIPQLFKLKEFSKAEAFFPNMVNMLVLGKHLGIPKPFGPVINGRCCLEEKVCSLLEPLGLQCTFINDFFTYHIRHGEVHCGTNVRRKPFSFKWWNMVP

Row | SMILES | IC50 (hPAD4 enzyme [1]) | IC50 (hPAD4 enzyme [2])
1 | CN[C@H](C)CN1CCc2cc3c(cc2C1=O)nc(-c1cc2ccccc2n1CC1CC1)n3C [Example 1, (R)-2-(1-(cyclopropylmethyl)-1H-indol-2-yl)-1-methyl-6-(2-(methylamino)propyl)-1,6,7,8-tetrahydro-5H-imidazo[4,5-g]isoquinolin-5-one] | 501 to 1000 nM | 101 to 500 nM
2 | C[C@H](CN1CCc2cc3c(cc2C1=O)nc(-c1cc2ccccc2n1CC1CC1)n3C)NCCF [Example 3, (R)-2-(1-(cyclopropylmethyl)-1H-indol-2-yl)-6-(2-((2-fluoroethyl)amino)propyl)-1-methyl-1,6,7,8-tetrahydro-5H-imidazo[4,5-g]isoquinolin-5-one] | > 1000 nM | > 1000 nM
3 | C[C@@H](N)CN1CCc2cc3c(cc2C1=O)nc(-c1cc2ccccc2n1CC1CC1)n3C [Example 5, (R)-6-(2-aminopropyl)-2-(1-(cyclopropylmethyl)-1H-indol-2-yl)-1-methyl-1,6,7,8-tetrahydro-5H-imidazo[4,5-g]isoquinolin-5-one] | 101 to 500 nM | 101 to 500 nM
4 | Cn1c(-c2cc3ccccc3n2CC2CC2)nc2cc3c(cc21)CCN(CC(C)(C)N)C3=O [Example 6, 6-(2-amino-2-methyl-propyl)-2-[1-(cyclopropylmethyl)indol-2-yl]-1-methyl-7,8-dihydroimidazo[4,5-g]isoquinolin-5-one] | > 1000 nM | > 1000 nM
5 | CC[C@@H](N)CN1CCc2cc3c(cc2C1=O)nc(-c1cc2ccccc2n1CC1CC1)n3C [Example 9, (R)-6-(2-aminobutyl)-2-(1-(cyclopropylmethyl)-1H-indol-2-yl)-1-methyl-1,6,7,8-tetrahydro-5H-imidazo[4,5-g]isoquinolin-5-one] | 501 to 1000 nM | 101 to 500 nM
6 | Cn1c(-c2cc3ccccc3n2CC2CC2)nc2cc3c(cc21)CCN(C[C@H](N)C1CC1)C3=O [Example 10, (R)-6-(2-amino-2-cyclopropylethyl)-2-(1-(cyclopropylmethyl)-1H-indol-2-yl)-1-methyl-1,6,7,8-tetrahydro-5H-imidazo[4,5-g]isoquinolin-5-one] | 101 to 500 nM | 101 to 500 nM
7 | CC(C)[C@@H](N)CN1CCc2cc3c(cc2C1=O)nc(-c1cc2ccccc2n1CC1CC1)n3C [Example 11, (R)-6-(2-amino-3-methylbutyl)-2-(1-(cyclopropylmethyl)-1H-indol-2-yl)-1-methyl-1,6,7,8-tetrahydro-5H-imidazo[4,5-g]isoquinolin-5-one] | > 1000 nM | > 1000 nM
8 | Cn1c(-c2cc3ccccc3n2CC2CC2)nc2cc3c(cc21)CCN(C[C@H](N)CF)C3=O [Example 12, (S)-6-(2-amino-3-fluoropropyl)-2-(1-(cyclopropylmethyl)-1H-indol-2-yl)-1-methyl-1,6,7,8-tetrahydro-5H-imidazo[4,5-g]isoquinolin-5-one] | 101 to 500 nM | 101 to 500 nM
9 | Cn1c(-c2cc3ccccc3n2CC2CC2)nc2cc3c(cc21)CCN(C[C@H]1COCCN1)C3=O [Example 13, (S)-2-(1-(cyclopropylmethyl)-1H-indol-2-yl)-1-methyl-6-(morpholin-3-ylmethyl)-1,6,7,8-tetrahydro-5H-imidazo[4,5-g]isoquinolin-5-one] | 101 to 500 nM | 501 to 1000 nM
10 | Cn1c(-c2cc3ccccc3n2CC2CC2)nc2cc3c(cc21)CCN(C[C@H](N)C(F)F)C3=O [Example 14, (S)-6-(2-amino-3,3-difluoropropyl)-2-(1-(cyclopropylmethyl)-1H-indol-2-yl)-1-methyl-1,6,7,8-tetrahydro-5H-imidazo[4,5-g]isoquinolin-5-one] | 501 to 1000 nM | > 1000 nM
11 | COc1cccc2cc(-c3nc4cc5c(cc4n3C)CCN(C[C@H](N)[C@H](C)F)C5=O)n(CC3CC3)c12 [Example 15a, 6-((2S,3S)-2-amino-3-fluorobutyl)-2-(1-(cyclopropylmethyl)-7-methoxy-1H-indol-2-yl)-1-methyl-1,6,7,8-tetrahydro-5H-imidazo[4,5-g]isoquinolin-5-one] | 101 to 500 nM | 101 to 500 nM
12 | COc1cccc2cc(-c3nc4cc5c(cc4n3C)CCN(C[C@H](N)C(C)F)C5=O)n(CC3CC3)c12 (stereo partly drawn) [Example 15b, 6-((2S,3R)-2-amino-3-fluorobutyl)-2-(1-(cyclopropylmethyl)-7-methoxy-1H-indol-2-yl)-1-methyl-1,6,7,8-tetrahydro-5H-imidazo[4,5-g]isoquinolin-5-one] | 101 to 500 nM | 501 to 1000 nM
13 | COc1cccc2cc(-c3nc4cc5c(cc4n3C)CCN(C[C@@H](C)N)C5=O)n(CC3CC3)c12 [Example 35, (R)-6-(2-aminopropyl)-2-(1-(cyclopropylmethyl)-7-methoxy-1H-indol-2-yl)-1-methyl-1,6,7,8-tetrahydro-5H-imidazo[4,5-g]isoquinolin-5-one] | 11 to 100 nM | 11 to 100 nM
14 | Cc1cccc2cc(-c3nc4cc5c(cc4n3C)CCN(C[C@H](N)CF)C5=O)n(CC3CC3)c12 [Example 48, (S)-6-(2-amino-3-fluoropropyl)-2-(1-(cyclopropylmethyl)-7-methyl-1H-indol-2-yl)-1-methyl-1,6,7,8-tetrahydro-5H-imidazo[4,5-g]isoquinolin-5-one] | 101 to 500 nM | 101 to 500 nM
15 | COc1cccc2cc(-c3nc4cc5c(cc4n3C)CCN(C[C@H](N)CF)C5=O)n(CC3CC3)c12 [Example 53, (S)-6-(2-amino-3-fluoropropyl)-2-(1-(cyclopropylmethyl)-7-methoxy-1H-indol-2-yl)-1-methyl-1,6,7,8-tetrahydro-5H-imidazo[4,5-g]isoquinolin-5-one] | 11 to 100 nM | 101 to 500 nM
16 | Cc1cc(C(N)=O)c(F)cc1-c1ccc2cc(-c3nc4cc5c(cc4n3C)CCN(C[C@H](N)CF)C5=O)n(CC3CC3)c2n1 [Example 60, (S)-4-(2-(6-(2-amino-3-fluoropropyl)-1-methyl-5-oxo-5,6,7,8-tetrahydro-1H-imidazo[4,5-g]isoquinolin-2-yl)-1-(cyclopropylmethyl)-1H-pyrrolo[2,3-b]pyridin-6-yl)-2-fluoro-5-methylbenzamide] | 11 to 100 nM | 101 to 500 nM
17 | COc1cc(F)cc2cc(-c3nc4cc5c(cc4n3C)CCN(C[C@H](N)CF)C5=O)n(CC3CC3)c12 [Example 65, (S)-6-(2-amino-3-fluoropropyl)-2-(1-(cyclopropylmethyl)-5-fluoro-7-methoxy-1H-indol-2-yl)-1-methyl-1,6,7,8-tetrahydro-5H-imidazo[4,5-g]isoquinolin-5-one] | 11 to 100 nM | 101 to 500 nM
18 | COC1CCN(c2ccc3cc(-c4nc5cc6c(cc5n4C)CCN(C[C@H](N)CF)C6=O)n(CC4CC4)c3c2)CC1 [Example 68, (S)-6-(2-amino-3-fluoropropyl)-2-(1-(cyclopropylmethyl)-6-(4-methoxypiperidin-1-yl)-1H-indol-2-yl)-1-methyl-1,6,7,8-tetrahydro-5H-imidazo[4,5-g]isoquinolin-5-one] | 11 to 100 nM | > 1000 nM
19 | Cn1c(-c2cc3ccc(-c4cccc(O)c4F)nc3n2CC2CC2)nc2cc3c(cc21)CCN(C[C@H]1COCCN1)C3=O [Example 248, (S)-2-(1-(cyclopropylmethyl)-6-(2-fluoro-3-hydroxyphenyl)-1H-pyrrolo[2,3-b]pyridin-2-yl)-1-methyl-6-(morpholin-3-ylmethyl)-1,6,7,8-tetrahydro-5H-imidazo[4,5-g]isoquinolin-5-one] | 501 to 1000 nM | 
20 | COC1CCN(c2ccc3cc(-c4nc5cc6c(cc5n4C)CCN(C[C@H]4COCCN4)C6=O)n(CC4CC4)c3c2)CC1 [Example 249, (S)-2-(1-(cyclopropylmethyl)-6-(4-methoxypiperidin-1-yl)-1H-indol-2-yl)-1-methyl-6-(morpholin-3-ylmethyl)-1,6,7,8-tetrahydro-5H-imidazo[4,5-g]isoquinolin-5-one] | 501 to 1000 nM | 
